Measured values from ChEMBL document CHEMBL1201862, “PubChem BioAssay data set” (2004).
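Method: 48-hour compound exposure of cells in 96-well plates, five concentrations, linear interpolation of endpoints. Abbreviation: GI50, concentration required for 50% inhibition of growth.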 Activity calls are given as the source filed them. Cut-off read from the data, not from the text of the source: active = GI50 up to about 1.1 µM and inactive = higher.

Key:
Assay in all cases: NCI anticancer screen, dose series, 48 h
OVCAR-4 = tested on: OVCAR-4
MDA-MB-231 = tested on: MDA-MB-231
SK-MEL-2 = tested on: SK-MEL-2
RXF 393 = tested on: RXF 393
K562 = tested on: K562
DU-145 = tested on: DU-145
HCT-116 = tested on: HCT-116
EKVX = tested on: EKVX
NCI/ADR-RES = tested on: NCI/ADR-RES
ACHN = tested on: ACHN
OVCAR-3 = tested on: OVCAR-3
SF-539 = tested on: SF-539
PC-3 = tested on: PC-3
MDA-MB-435 = tested on: MDA-MB-435
SNB-19 = tested on: SNB-19
SK-OV-3 = tested on: SK-OV-3
HCT-15 = tested on: HCT-15
SN12C = tested on: SN12C
NCI-H23 = tested on: NCI-H23
CCRF-CEM = tested on: CCRF-CEM
NCI-H226 = tested on: NCI-H226
SK-MEL-5 = tested on: SK-MEL-5
A498 = tested on: A498
HT-29 = tested on: HT-29
SW-620 = tested on: SW-620
HL-60 = tested on: HL-60
A549 = tested on: A549
MCF7 = tested on: MCF7
786-0 = tested on: 786-0
CAKI-1 = tested on: CAKI-1
HOP-92 = tested on: HOP-92
HCC 2998 = tested on: HCC 2998
M14 = tested on: M14
SK-MEL-28 = tested on: SK-MEL-28
MDA-N = tested on: MDA-N
KM12 = tested on: KM12
U-251 = tested on: U-251
SF-268 = tested on: SF-268
MOLT-4 = tested on: MOLT-4
IGROV-1 = tested on: IGROV-1
TK-10 = tested on: TK-10
LOX IMVI = tested on: LOX IMVI
UO-31 = tested on: UO-31
COLO 205 = tested on: COLO 205
UACC-62 = tested on: UACC-62
SF-295 = tested on: SF-295
UACC-257 = tested on: UACC-257
NCI-H522 = tested on: NCI-H522
Hs-578T = tested on: Hs-578T
SNB-75 = tested on: SNB-75
HOP-62 = tested on: HOP-62
Malme-3M = tested on: Malme-3M
OVCAR-8 = tested on: OVCAR-8
OVCAR-5 = tested on: OVCAR-5
SR = tested on: SR
NCI-H460 = tested on: NCI-H460
T47D = tested on: T47D
RPMI-8226 = tested on: RPMI-8226

C[n+]1c(-c2ccccc2)cc2/c(=C\c3ccccc3)c3ccccc3n21
GI50 (OVCAR-4): 1.62 µM (inactive)
GI50 (MDA-MB-231): 0.661 µM (active)
GI50 (SK-MEL-2): 0.832 µM (active)
GI50 (RXF 393): 1.36 µM (inactive)
GI50 (K562): 7.03 µM (inactive)
GI50 (DU-145): 2.54 µM (inactive)
GI50 (HCT-116): 1.25 µM (inactive)
GI50 (EKVX): 1.93 µM (inactive)
GI50 (NCI/ADR-RES): 14.6 µM (inactive)
GI50 (ACHN): 3.13 µM (inactive)
GI50 (OVCAR-3): 1.34 µM (inactive)
GI50 (SF-539): 0.908 µM (active)
GI50 (PC-3): 0.918 µM (active)
GI50 (MDA-MB-435): 0.726 µM (active)
GI50 (SNB-19): 0.731 µM (active)
GI50 (SK-OV-3): 4.14 µM (inactive)
GI50 (HCT-15): 3.47 µM
GI50 (SN12C): 0.308 µM (active)
GI50 (NCI-H23): 2.68 µM (inactive)
GI50 (CCRF-CEM): 0.582 µM (active)
GI50 (NCI-H226): 0.418 µM (active)
GI50 (SK-MEL-5): 0.667 µM (active)
GI50 (A498): 6.32 µM (inactive)
GI50 (HT-29): 1.06 µM (active)
GI50 (SW-620): 1.06 µM (active)
GI50 (HL-60): 0.0452 µM (active)
GI50 (A549): 3.96 µM (inactive)
GI50 (MCF7): 1.34 µM (inactive)
GI50 (786-0): 0.906 µM (active)
GI50 (CAKI-1): 2.94 µM (inactive)
GI50 (HOP-92): 1.69 µM (inactive)
GI50 (HCC 2998): 3.84 µM (inactive)
GI50 (M14): 1.27 µM (inactive)
GI50 (SK-MEL-28): 0.871 µM (active)
GI50 (MDA-N): 0.948 µM (active)
GI50 (KM12): 0.738 µM (active)
GI50 (U-251): 0.233 µM (active)
GI50 (SF-268): 0.593 µM (active)
GI50 (MOLT-4): 1.73 µM (inactive)
GI50 (IGROV-1): 1.09 µM (active)
GI50 (TK-10): 2.72 µM (inactive)
GI50 (LOX IMVI): 1.25 µM (inactive)
GI50 (UO-31): 2.95 µM (inactive)
GI50 (COLO 205): 0.339 µM (active)
GI50 (UACC-62): 1.3 µM (inactive)
GI50 (SF-295): 4.93 µM (inactive)
GI50 (UACC-257): 0.991 µM (active)
GI50 (NCI-H522): 0.363 µM (active)
GI50 (Hs-578T): 0.116 µM (active)
GI50 (SNB-75): 0.422 µM (active)
GI50 (HOP-62): 2.43 µM (inactive)
GI50 (Malme-3M): 1.14 µM (inactive)
GI50 (OVCAR-8): 0.361 µM (active)
GI50 (OVCAR-5): 3.4 µM (inactive)

CCN1C(=O)CS/C1=N/NC(=O)C(O)(c1ccccc1)C1C=CC=CC1 (centres undefined)
GI50 (OVCAR-4): > 10 µM (inactive)
GI50 (SK-MEL-2): > 10 µM (inactive)
GI50 (RXF 393): > 10 µM (inactive)
GI50 (K562): > 10 µM (inactive)
GI50 (NCI/ADR-RES): > 10 µM (inactive)
GI50 (ACHN): > 10 µM (inactive)
GI50 (MDA-MB-435): > 10 µM (inactive)
GI50 (SK-OV-3): > 10 µM (inactive)
GI50 (NCI-H23): > 10 µM (inactive)
GI50 (CCRF-CEM): > 10 µM (inactive)
GI50 (SK-MEL-5): > 10 µM (inactive)
GI50 (SW-620): > 10 µM (inactive)
GI50 (HL-60): > 10 µM (inactive)
GI50 (A549): > 10 µM (inactive)
GI50 (MCF7): > 10 µM (inactive)
GI50 (SR): > 10 µM (inactive)
GI50 (CAKI-1): > 10 µM (inactive)
GI50 (HOP-92): > 10 µM (inactive)
GI50 (M14): > 10 µM (inactive)
GI50 (SK-MEL-28): > 10 µM (inactive)
GI50 (NCI-H460): > 10 µM (inactive)
GI50 (U-251): > 10 µM (inactive)
GI50 (SF-268): > 10 µM (inactive)
GI50 (MOLT-4): > 10 µM (inactive)
GI50 (IGROV-1): > 10 µM (inactive)
GI50 (COLO 205): > 10 µM (inactive)
GI50 (T47D): > 10 µM (inactive)
GI50 (UACC-62): > 10 µM (inactive)
GI50 (RPMI-8226): > 10 µM (inactive)
GI50 (SNB-75): > 10 µM (inactive)
GI50 (HOP-62): > 10 µM (inactive)
GI50 (Malme-3M): > 10 µM (inactive)
GI50 (OVCAR-5): > 10 µM (inactive)

N#C/N=C(/N)c1sc2nc3c(c(-c4ccc(Br)cc4)c2c1N)CCCC3
GI50 (OVCAR-4): 3.21 µM (inactive)
GI50 (MDA-MB-231): 20.6 µM (inactive)
GI50 (SK-MEL-2): 13.2 µM (inactive)
GI50 (RXF 393): 17.7 µM (inactive)
GI50 (K562): 9.23 µM (inactive)
GI50 (DU-145): 21 µM (inactive)
GI50 (HCT-116): 9.02 µM (inactive)
GI50 (NCI/ADR-RES): 21.4 µM (inactive)
GI50 (ACHN): 20.6 µM (inactive)
GI50 (SF-539): 22.1 µM (inactive)
GI50 (PC-3): 11.6 µM (inactive)
GI50 (MDA-MB-435): 2.73 µM (inactive)
GI50 (SNB-19): 33.4 µM (inactive)
GI50 (SK-OV-3): 28.1 µM (inactive)
GI50 (HCT-15): 10.2 µM
GI50 (SN12C): 21.5 µM (inactive)
GI50 (NCI-H23): 26.1 µM (inactive)
GI50 (CCRF-CEM): 9.84 µM (inactive)
GI50 (NCI-H226): 15.9 µM (inactive)
GI50 (SK-MEL-5): 4.37 µM (inactive)
GI50 (A498): 16.1 µM (inactive)
GI50 (HT-29): 18.5 µM (inactive)
GI50 (SW-620): 43.7 µM (inactive)
GI50 (A549): 25.4 µM (inactive)
GI50 (MCF7): 18.5 µM (inactive)
GI50 (SR): 2.64 µM (inactive)
GI50 (786-0): 15.7 µM (inactive)
GI50 (CAKI-1): 14.5 µM (inactive)
GI50 (HOP-92): 21 µM (inactive)
GI50 (HCC 2998): 22.1 µM (inactive)
GI50 (M14): 21.8 µM (inactive)
GI50 (SK-MEL-28): 32.9 µM (inactive)
GI50 (MDA-N): 3.42 µM (inactive)
GI50 (KM12): 21.3 µM (inactive)
GI50 (NCI-H460): 21.1 µM (inactive)
GI50 (U-251): 24.2 µM (inactive)
GI50 (SF-268): 35 µM (inactive)
GI50 (MOLT-4): 11.7 µM (inactive)
GI50 (TK-10): 33.1 µM (inactive)
GI50 (LOX IMVI): 7.93 µM (inactive)
GI50 (UO-31): 19.9 µM (inactive)
GI50 (COLO 205): 14.4 µM (inactive)
GI50 (UACC-62): 13.9 µM (inactive)
GI50 (SF-295): 11.1 µM (inactive)
GI50 (UACC-257): 28.5 µM (inactive)
GI50 (RPMI-8226): 17.1 µM (inactive)
GI50 (OVCAR-8): 24.8 µM (inactive)
GI50 (OVCAR-5): 34.3 µM (inactive)

COc1cc([C@@H]2c3cc4c(cc3[C@@H](/N=C/c3ccc(C(=O)O[C@@H](C(=O)O[C@H]5C[C@@]6(O)[C@@H](OC(=O)c7ccccc7)[C@@H]7[C@]8(OC(C)=O)CO[C@@H]8C[C@H](O)[C@@]7(C)C(=O)[C@H](OC(C)=O)C(=C5C)C6(C)C)[C@@H](NC(=O)c5ccccc5)c5ccccc5)cc3)[C@H]3COC(=O)[C@H]23)OCO4)cc(OC)c1O
GI50 (MDA-MB-231): 0.116 µM (active)
GI50 (SK-MEL-2): 0.0335 µM (active)
GI50 (RXF 393): 0.0333 µM (active)
GI50 (K562): < 0.005 µM (active)
GI50 (DU-145): 0.0261 µM (active)
GI50 (HCT-116): 0.027 µM (active)
GI50 (EKVX): 5.93 µM (inactive)
GI50 (NCI/ADR-RES): > 46 µM (inactive)
GI50 (ACHN): 5.08 µM (inactive)
GI50 (OVCAR-3): 0.00893 µM (active)
GI50 (SF-539): 0.0141 µM (active)
GI50 (PC-3): 0.0138 µM (active)
GI50 (MDA-MB-435): < 0.005 µM (active)
GI50 (SNB-19): 1.22 µM (inactive)
GI50 (SK-OV-3): 0.0785 µM (active)
GI50 (HCT-15): 13.3 µM
GI50 (SN12C): 0.0393 µM (active)
GI50 (NCI-H23): 0.869 µM (active)
GI50 (CCRF-CEM): 0.0118 µM (active)
GI50 (NCI-H226): 0.075 µM (active)
GI50 (SK-MEL-5): 0.0154 µM (active)
GI50 (A498): 0.133 µM (active)
GI50 (HT-29): 0.0103 µM (active)
GI50 (SW-620): 0.0297 µM (active)
GI50 (HL-60): 0.0149 µM (active)
GI50 (A549): 0.0266 µM (active)
GI50 (MCF7): 0.0128 µM (active)
GI50 (SR): < 0.005 µM (active)
GI50 (786-0): 0.0748 µM (active)
GI50 (CAKI-1): 6.31 µM (inactive)
GI50 (HOP-92): > 36.4 µM (inactive)
GI50 (HCC 2998): 0.0189 µM (active)
GI50 (M14): 0.022 µM (active)
GI50 (SK-MEL-28): > 37.1 µM (inactive)
GI50 (MDA-N): 0.00589 µM (active)
GI50 (KM12): 0.0094 µM (active)
GI50 (NCI-H460): 0.00929 µM (active)
GI50 (U-251): 0.0154 µM (active)
GI50 (SF-268): 0.0703 µM (active)
GI50 (MOLT-4): 0.018 µM (active)
GI50 (IGROV-1): 0.19 µM (active)
GI50 (TK-10): 14.1 µM (inactive)
GI50 (LOX IMVI): 0.11 µM (active)
GI50 (COLO 205): 0.00891 µM (active)
GI50 (UACC-62): 0.0815 µM (active)
GI50 (SF-295): 0.171 µM (active)
GI50 (UACC-257): 0.109 µM (active)
GI50 (NCI-H522): 0.0138 µM (active)
GI50 (RPMI-8226): < 0.005 µM (active)
GI50 (Hs-578T): 0.0459 µM (active)
GI50 (SNB-75): < 0.005 µM (active)
GI50 (HOP-62): 0.246 µM (active)
GI50 (OVCAR-8): 0.356 µM (active)
GI50 (OVCAR-5): 0.0312 µM (active)
